Marks after values point to notes of the source that are not given here.
How the values were obtained:
[1] = Example 2: carcass, abdominal fat and yields of commercial cuts at 42 d; assay type: in vivo, Broiler Chicken (Cobb 500); details: for Abdominal fat yield / Breast fillets yield / Breast tenders yield / Drumsticks yield / Thighs yield / Wings yield: proportion of the carcass
From the text: Study Animals: • Animal: Broiler Chicken • Breed/Strain: Cobb 500 • Description: Day-of-hatch male chicks, sexed at hatchery • Sex: Male
Processing: On day […] (12) birds are selected from each pen for processing (at 12 reps/trt: 576 birds in total; 144 birds/trt)
Dietary Treatments • Control (NC, negative control without PQQ) • 0.2 ppm PQQ • 0.5 ppm PQQ • 1 ppm PQQ

[2] = Example 1: broiler performance (body weight, gain, feed intake, FCR), PQQ in diet, 0 to 49 days; assay type: in vivo, Broiler Chicken (Ross 708)
From the text: Study Animals: • Animal: Broiler Chicken • Breed/Strain: Ross 708 • Description: Day-of-hatch male chicks, sexed at hatchery • Sex: Male Total number of treatments: 4 Total number of replicates per treatment: 12 Total number of chicks per replicate: 40 Initial age: day-of-hatch: 0 days-of-age Final age: 7 weeks: 49 days-of-age. Feed will be changed based on the days of each phase. • Starter feed will be weighed out and fed from day 0 to 14. On day 14, non-consumed starter feed will be weighed by pen and discarded. • Grower feed will be weighed, issued and fed from day 14 until 28. On day 28, non-consumed grower feed will be weighed by pen and discarded. • Finisher feed will be weighed, issued and fed from day 28 until 42. On day 42, non-consumed finisher feed will be weighed by pen and discarded. • Withdraw feed will be weighed, issued and fed from day 42 until 49. On day 49, non-consumed finisher feed will be weighed by pen and discarded. Performance: Feed consumption and pen weights are determined on days 0, 14, 21, 28, 35, 42 and 49 to calculate average body weight (BW), body weight gain (BWG) and feed conversion ratio (FCR). Final bird weights: At the end of the grow-out period (Day 49), all birds are weighed, as well as any and all remaining feed. Randomized Complete Block Design with 4 treatments×12 replicates/treatment (40 birds/pen), randomized within blocks across the barn to minimize differences in environmental condition. The pen is the experimental unit. Dietary Treatments • Control (NC, negative control without PQQ) • 0.5 ppm PQQ • 1 ppm PQQ • 2 ppm PQQ The results are presented in the following tables 1-4 for broilers fed diets from the first week to the seventh week (corresponding to 0 to 49 days of age). The values are means and SD is standard variation. The feed conversion ratio is the ratio between feed intake and body weight gain.

Molecule `O=C(O)c1cc(C(=O)O)c2c(n1)C(=O)C(=O)c1cc(C(=O)O)[nH]c1-2` [PQQ, pyrroloquinoline quinone] has an Abdominal fat weight ([1]; 0.2 ppm PQQ) of 26 g, a Breast fillets weight ([1]; 0.2 ppm PQQ) of 680 g and a Breast tenders weight ([1]; 0.2 ppm PQQ) of 127ab g. For the same molecule, the “Carcass yield (eviscerated carcass as a percentage of body weight)” value ([1]; 0.2 ppm PQQ) was 80.3^b %, the Drumsticks weight ([1]; 0.2 ppm PQQ) was 467 g and the Thighs weight ([1]; 0.2 ppm PQQ) was 364 g. The Wings weight ([1]; 0.2 ppm PQQ) was 258 g, the Abdominal fat yield ([1]; 0.2 ppm PQQ) was 1.05% and the Breast fillets yield ([1]; 0.2 ppm PQQ) was 26.8%. For the same molecule, the Breast tenders yield ([1]; 0.2 ppm PQQ) was 5.03^b %, the Drumsticks yield ([1]; 0.2 ppm PQQ) was 18.42^b % and the Thighs yield ([1]; 0.2 ppm PQQ) was 14.36^ab %. For the same molecule, the Wings yield ([1]; 0.2 ppm PQQ) was 10.19^ab %, the Abdominal fat weight ([1]; 0.5 ppm PQQ) was 28 g and the Breast fillets weight ([1]; 0.5 ppm PQQ) was 677 g. For the same molecule, the Breast tenders weight ([1]; 0.5 ppm PQQ) was 129ab g, the “Carcass yield (eviscerated carcass as a percentage of body weight)” value ([1]; 0.5 ppm PQQ) was 80.4^b % and the Drumsticks weight ([1]; 0.5 ppm PQQ) was 473 g. It also gave a Thighs weight ([1]; 0.5 ppm PQQ) of 378 g, a Wings weight ([1]; 0.5 ppm PQQ) of 258 g and an Abdominal fat yield ([1]; 0.5 ppm PQQ) of 1.11%. For the same molecule, the Breast fillets yield ([1]; 0.5 ppm PQQ) was 26.8%, the Breast tenders yield ([1]; 0.5 ppm PQQ) was 5.12^ab % and the Drumsticks yield ([1]; 0.5 ppm PQQ) was 18.73^ab %. For the same molecule, the Thighs yield ([1]; 0.5 ppm PQQ) was 15.01^a %, the Wings yield ([1]; 0.5 ppm PQQ) was 10.42^a % and the Abdominal fat weight ([1]; 1.0 ppm PQQ) was 23 g. For the same molecule, the Breast fillets weight ([1]; 1.0 ppm PQQ) was 702 g, the Breast tenders weight ([1]; 1.0 ppm PQQ) was 134a g and the “Carcass yield (eviscerated carcass as a percentage of body weight)” value ([1]; 1.0 ppm PQQ) was 80.3^b %. For the same molecule, the Drumsticks weight ([1]; 1.0 ppm PQQ) was 486 g, the Thighs weight ([1]; 1.0 ppm PQQ) was 366 g and the Wings weight ([1]; 1.0 ppm PQQ) was 259 g. The Abdominal fat yield ([1]; 1.0 ppm PQQ) was 0.90%, the Breast fillets yield ([1]; 1.0 ppm PQQ) was 27.4% and the Breast tenders yield ([1]; 1.0 ppm PQQ) was 5.22^a %. The Drumsticks yield ([1]; 1.0 ppm PQQ) was 18.89^a %, the Thighs yield ([1]; 1.0 ppm PQQ) was 14.24^b % and the Wings yield ([1]; 1.0 ppm PQQ) was 10.05^ab %. The body weight ([2]; 0.5 ppm PQQ, wk 1) was 0.139 kg, the “feed conversion ratio (FCR)” value ([2]; 0.5 ppm PQQ, wk 1) was 1.491 and the feed intake ([2]; 0.5 ppm PQQ, wk 1) was 0.142 kg. The “weekly body weight gain” value ([2]; 0.5 ppm PQQ, wk 1) was 0.095 kg, the body weight ([2]; 0.5 ppm PQQ, wk 2) was 0.355 kg and the “feed conversion ratio (FCR)” value ([2]; 0.5 ppm PQQ, wk 2) was 1.400. For the same molecule, the feed intake ([2]; 0.5 ppm PQQ, wk 2) was 0.299 kg, the “weekly body weight gain” value ([2]; 0.5 ppm PQQ, wk 2) was 0.215 kg and the body weight ([2]; 0.5 ppm PQQ, wk 3) was 0.763 kg. The “feed conversion ratio (FCR)” value ([2]; 0.5 ppm PQQ, wk 3) was 1.623, the feed intake ([2]; 0.5 ppm PQQ, wk 3) was 0.671 kg and the “weekly body weight gain” value ([2]; 0.5 ppm PQQ, wk 3) was 0.414 kg. For the same molecule, the body weight ([2]; 0.5 ppm PQQ, wk 4) was 1.286 kg, the “feed conversion ratio (FCR)” value ([2]; 0.5 ppm PQQ, wk 4) was 1.435 and the feed intake ([2]; 0.5 ppm PQQ, wk 4) was 0.796 kg. For the same molecule, the “weekly body weight gain” value ([2]; 0.5 ppm PQQ, wk 4) was 0.556 kg, the body weight ([2]; 0.5 ppm PQQ, wk 5) was 2.042 kg and the “feed conversion ratio (FCR)” value ([2]; 0.5 ppm PQQ, wk 5) was 1.617. The feed intake ([2]; 0.5 ppm PQQ, wk 5) was 1.139 kg, the “weekly body weight gain” value ([2]; 0.5 ppm PQQ, wk 5) was 0.688 kg and the body weight ([2]; 0.5 ppm PQQ, wk 6) was 2.808 kg. For the same molecule, the “feed conversion ratio (FCR)” value ([2]; 0.5 ppm PQQ, wk 6) was 1.755, the feed intake ([2]; 0.5 ppm PQQ, wk 6) was 1.346 kg and the “weekly body weight gain” value ([2]; 0.5 ppm PQQ, wk 6) was 0.767 kg. For the same molecule, the body weight ([2]; 0.5 ppm PQQ, wk 7) was 3.416 kg, the “feed conversion ratio (FCR)” value ([2]; 0.5 ppm PQQ, wk 7) was 1.603 and the feed intake ([2]; 0.5 ppm PQQ, wk 7) was 0.986 kg. For the same molecule, the “weekly body weight gain” value ([2]; 0.5 ppm PQQ, wk 7) was 0.622 kg, the “influence on the body weight” value ([2]; 0.5 ppm, as from the second week) was “positive influence” and the body weight ([2]; 1.0 ppm PQQ, wk 1) was 0.145 kg. For the same molecule, the “feed conversion ratio (FCR)” value ([2]; 1.0 ppm PQQ, wk 1) was 1.514, the feed intake ([2]; 1.0 ppm PQQ, wk 1) was 0.151 kg and the “weekly body weight gain” value ([2]; 1.0 ppm PQQ, wk 1) was 0.100 kg. The body weight ([2]; 1.0 ppm PQQ, wk 2) was 0.371 kg, the “feed conversion ratio (FCR)” value ([2]; 1.0 ppm PQQ, wk 2) was 1.418 and the feed intake ([2]; 1.0 ppm PQQ, wk 2) was 0.315 kg. For the same molecule, the “weekly body weight gain” value ([2]; 1.0 ppm PQQ, wk 2) was 0.225 kg, the body weight ([2]; 1.0 ppm PQQ, wk 3) was 0.790 kg and the “feed conversion ratio (FCR)” value ([2]; 1.0 ppm PQQ, wk 3) was 1.619. The feed intake ([2]; 1.0 ppm PQQ, wk 3) was 0.678 kg, the “weekly body weight gain” value ([2]; 1.0 ppm PQQ, wk 3) was 0.419 kg and the body weight ([2]; 1.0 ppm PQQ, wk 4) was 1.329 kg. For the same molecule, the “feed conversion ratio (FCR)” value ([2]; 1.0 ppm PQQ, wk 4) was 1.427, the feed intake ([2]; 1.0 ppm PQQ, wk 4) was 0.816 kg and the “weekly body weight gain” value ([2]; 1.0 ppm PQQ, wk 4) was 0.573 kg. The body weight ([2]; 1.0 ppm PQQ, wk 5) was 2.112 kg, the “feed conversion ratio (FCR)” value ([2]; 1.0 ppm PQQ, wk 5) was 1.608 and the feed intake ([2]; 1.0 ppm PQQ, wk 5) was 1.161 kg. For the same molecule, the “weekly body weight gain” value ([2]; 1.0 ppm PQQ, wk 5) was 0.723 kg, the body weight ([2]; 1.0 ppm PQQ, wk 6) was 2.927 kg and the “feed conversion ratio (FCR)” value ([2]; 1.0 ppm PQQ, wk 6) was 1.741. For the same molecule, the feed intake ([2]; 1.0 ppm PQQ, wk 6) was 1.370 kg, the “weekly body weight gain” value ([2]; 1.0 ppm PQQ, wk 6) was 0.787 kg and the body weight ([2]; 1.0 ppm PQQ, wk 7) was 3.612 kg. For the same molecule, the “feed conversion ratio (FCR)” value ([2]; 1.0 ppm PQQ, wk 7) was 1.616, the feed intake ([2]; 1.0 ppm PQQ, wk 7) was 1.106 kg and the “weekly body weight gain” value ([2]; 1.0 ppm PQQ, wk 7) was 0.686 kg. For the same molecule, the “influence on the body weight” value ([2]; 1 ppm and 2 ppm, as from the first week up to the end of the assay) was “positive influence”, the body weight ([2]; 2.0 ppm PQQ, wk 1) was 0.146 kg and the “feed conversion ratio (FCR)” value ([2]; 2.0 ppm PQQ, wk 1) was 1.406. The feed intake ([2]; 2.0 ppm PQQ, wk 1) was 0.142 kg, the “weekly body weight gain” value ([2]; 2.0 ppm PQQ, wk 1) was 0.102 kg and the body weight ([2]; 2.0 ppm PQQ, wk 2) was 0.373 kg. For the same molecule, the “feed conversion ratio (FCR)” value ([2]; 2.0 ppm PQQ, wk 2) was 1.414, the feed intake ([2]; 2.0 ppm PQQ, wk 2) was 0.315 kg and the “weekly body weight gain” value ([2]; 2.0 ppm PQQ, wk 2) was 0.224 kg. For the same molecule, the body weight ([2]; 2.0 ppm PQQ, wk 3) was 0.794 kg, the “feed conversion ratio (FCR)” value ([2]; 2.0 ppm PQQ, wk 3) was 1.608 and the feed intake ([2]; 2.0 ppm PQQ, wk 3) was 0.645 kg. The “weekly body weight gain” value ([2]; 2.0 ppm PQQ, wk 3) was 0.425 kg, the body weight ([2]; 2.0 ppm PQQ, wk 4) was 1.331 kg and the “feed conversion ratio (FCR)” value ([2]; 2.0 ppm PQQ, wk 4) was 1.469. The feed intake ([2]; 2.0 ppm PQQ, wk 4) was 0.813 kg, the “weekly body weight gain” value ([2]; 2.0 ppm PQQ, wk 4) was 0.548 kg and the body weight ([2]; 2.0 ppm PQQ, wk 5) was 2.065 kg. For the same molecule, the “feed conversion ratio (FCR)” value ([2]; 2.0 ppm PQQ, wk 5) was 1.605, the feed intake ([2]; 2.0 ppm PQQ, wk 5) was 1.141 kg and the “weekly body weight gain” value ([2]; 2.0 ppm PQQ, wk 5) was 0.727 kg. The body weight ([2]; 2.0 ppm PQQ, wk 6) was 2.835 kg, the “feed conversion ratio (FCR)” value ([2]; 2.0 ppm PQQ, wk 6) was 1.741 and the feed intake ([2]; 2.0 ppm PQQ, wk 6) was 1.336 kg. For the same molecule, the “weekly body weight gain” value ([2]; 2.0 ppm PQQ, wk 6) was 0.77 kg, the body weight ([2]; 2.0 ppm PQQ, wk 7) was 3.472 kg and the “feed conversion ratio (FCR)” value ([2]; 2.0 ppm PQQ, wk 7) was 1.615. The feed intake ([2]; 2.0 ppm PQQ, wk 7) was 1.041 kg, the “weekly body weight gain” value ([2]; 2.0 ppm PQQ, wk 7) was 0.648 kg and the “influence on the feed intake” value ([2]; as from a concentration of 1 ppm) was “has an influence on the feed intake”.

— patent US20210161174A1, “FEED ADDITIVE FOR FARMED ANIMALS” (ADISSEO FRANCE S.A.S., priority 2018, published 2021)
